Experimental data taken from patent US8613914B2, “Peptidomimetic sulfamide compounds and antiviral uses thereof” (Novartis AG, priority 2009, dated 2013).

These compounds were tested against HCV NS3-4A serine protease (full-length NS3-4A protein) (Hepatitis C virus genotype 1a (isolate 1) (HCV), UniProt P26664) (assay: HCV NS3-4A protease assay). Conditions: strain HCV-1, fluorogenic peptide substrate, read-out: Protease assay Ex. 12 IC50.
Format: biochemical, HCV genotype 1a
Protocol: The inhibitory activity of certain compounds of Table A against HCV NS3-4A serine protease is determined in a homogenous assay using the full-length NS3-4A protein (genotype 1a, strain HCV-1) and a commercially available internally-quenched fluorogenic peptide substrate as described by Taliani, M., et al. 1996 Anal. Biochem. 240:60-67, which is incorporated by reference in its entirety.

HCV NS3-4A serine protease (full-length NS3-4A protein), sequence (P26664 1027-1657): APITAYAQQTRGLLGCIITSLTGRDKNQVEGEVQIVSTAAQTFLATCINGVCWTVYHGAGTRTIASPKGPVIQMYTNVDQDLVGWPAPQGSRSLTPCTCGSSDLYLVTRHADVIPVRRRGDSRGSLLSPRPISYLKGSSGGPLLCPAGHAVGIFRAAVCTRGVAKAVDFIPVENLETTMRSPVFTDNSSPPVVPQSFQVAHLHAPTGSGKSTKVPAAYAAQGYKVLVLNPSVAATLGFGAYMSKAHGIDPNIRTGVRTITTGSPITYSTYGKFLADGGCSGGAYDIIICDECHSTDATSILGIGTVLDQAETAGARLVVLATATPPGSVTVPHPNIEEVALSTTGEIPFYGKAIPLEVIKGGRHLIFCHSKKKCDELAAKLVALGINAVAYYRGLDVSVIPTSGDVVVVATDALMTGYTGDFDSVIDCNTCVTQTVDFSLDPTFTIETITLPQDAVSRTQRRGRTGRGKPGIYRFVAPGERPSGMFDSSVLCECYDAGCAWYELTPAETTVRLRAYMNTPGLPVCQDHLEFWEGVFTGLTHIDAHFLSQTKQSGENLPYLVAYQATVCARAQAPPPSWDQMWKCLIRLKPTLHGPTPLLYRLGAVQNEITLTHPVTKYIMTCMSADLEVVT
HCV NS3-4A serine protease (full-length NS3-4A protein), sequence (P26664 1658-1711 partner): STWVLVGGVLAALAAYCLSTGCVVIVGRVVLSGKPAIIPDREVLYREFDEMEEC

Structure (SMILES)	IC50 [nM]
C=C[C@@H]1C[C@]1(NC(=O)[C@@H]1C[C@@]2(CN1C(=O)[C@@H](NC(=O)[C@@H](NC(=O)c1cc3cc(OC)ccc3[nH]1)C1CCCCC1)C(C)(C)C)C(C)(C)C21CCC1)C(=O)NS(=O)(=O)N1CCCC1 [Compound 176, (5R,8S)-7-{(2S)-2-[(cyclohexyl{[(5-methoxy-1H-indol-2-yl)carbonyl]amino}acetyl)amino]-3,3-dimethylbutanoyl}-10,10-dimethyl-N-{(1R,2S)-1-[(pyrrolidin-1-ylsulfonyl)carbamoyl]-2-vinylcyclopropyl}-7-azadispiro[3.0.4.1]decane-8-carboxamide]	25
C=C[C@@H]1C[C@]1(NC(=O)[C@@H]1C[C@@]2(CN1C(=O)[C@@H](NC(=O)[C@@H](NC(=O)CN1CCc3ccccc3C1)C1CCCCC1)C(C)(C)C)C(C)(C)C21CCC1)C(=O)NS(=O)(=O)N1CCCC1 [Compound 177, (5R,8S)-7-[(2S)-2-({cyclohexyl[(3,4-dihydroisoquinolin-2(1H)-ylacetyl)amino]acetyl}amino)-3,3-dimethylbutanoyl]-10,10-dimethyl-N-{(1R,2S)-1-[(pyrrolidin-1-ylsulfonyl)carbamoyl]-2-vinylcyclopropyl}-7-azadispiro[3.0.4.1]decane-8-carboxamide]	25
C=C[C@@H]1C[C@]1(NC(=O)[C@@H]1C[C@@]2(CN1C(=O)[C@@H](NC(=O)[C@@H](NC(=O)c1cc3ccccc3n1C)C1CCCCC1)C(C)(C)C)C(C)(C)C21CCC1)C(=O)NS(=O)(=O)N1CCCC1 [Compound 178, (5R,8S)-7-{(2S)-2-[(cyclohexyl{[(1-methyl-1H-indol-2-yl)carbonyl]amino}acetyl)amino]-3,3-dimethylbutanoyl}-10,10-dimethyl-N-{(1R,2S)-1-[(pyrrolidin-1-ylsulfonyl)carbamoyl]-2-vinylcyclopropyl}-7-azadispiro[3.0.4.1]decane-8-carboxamide]	80
C=C[C@@H]1C[C@]1(NC(=O)[C@@H]1C[C@@]2(CN1C(=O)[C@@H](NC(=O)[C@@H](NC(=O)CC1CCCCO1)C1CCCCC1)C(C)(C)C)C(C)(C)C21CCC1)C(=O)NS(=O)(=O)N1CCCC1 (stereo partly drawn) [Compound 179, (5R,8S)-7-[(2S)-2-({cyclohexyl[(tetrahydro-2H-pyran-2-ylacetyl)amino]acetyl}amino)-3,3-dimethylbutanoyl]-10,10-dimethyl-N-{(1R,2S)-1-[(pyrrolidin-1-ylsulfonyl)carbamoyl]-2-vinylcyclopropyl}-7-azadispiro[3.0.4.1]decane-8-carboxamide]	25
C=C[C@@H]1C[C@]1(NC(=O)[C@@H]1C[C@@]2(CN1C(=O)[C@@H](NC(=O)[C@@H](NC(=O)c1cc(C)nn1CC)C1CCCCC1)C(C)(C)C)C(C)(C)C21CCC1)C(=O)NS(=O)(=O)N1CCCC1 [Compound 180, (5R,8S)-7-{(2S)-2-[(cyclohexyl{[(1-ethyl-3-methyl-1H-pyrazol-5-yl)carbonyl]amino}acetyl)amino]-3,3-dimethylbutanoyl}-10,10-dimethyl-N-{(1R,2S)-1-[(pyrrolidin-1-ylsulfonyl)carbamoyl]-2-vinylcyclopropyl}-7-azadispiro[3.0.4.1]decane-8-carboxamide]	30
C=C[C@@H]1C[C@]1(NC(=O)[C@@H]1C[C@@]2(CN1C(=O)[C@@H](NC(=O)[C@@H](NC(=O)c1cc(C(C)(C)C)nn1C)C1CCCCC1)C(C)(C)C)C(C)(C)C21CCC1)C(=O)NS(=O)(=O)N1CCCC1 [Compound 181, (5R,8S)-7-[(2S)-2-{[{[(3-tert-butyl-1-methyl-1H-pyrazol-5-yl)carbonyl]amino}(cyclohexyl)acetyl]amino}-3,3-dimethylbutanoyl]-10,10-dimethyl-N-{(1R,2S)-1-[(pyrrolidin-1-ylsulfonyl)carbamoyl]-2-vinylcyclopropyl}-7-azadispiro[3.0.4.1]decane-8-carboxamide]	90
C=C[C@@H]1C[C@]1(NC(=O)[C@@H]1C[C@@]2(CN1C(=O)[C@@H](NC(=O)[C@@H](NC(=O)c1ccccc1NC)C1CCCCC1)C(C)(C)C)C(C)(C)C21CCC1)C(=O)NS(=O)(=O)N1CCCC1 [Compound 182, (5R,8S)-7-{(2S)-2-[(cyclohexyl{[2-(methylamino)benzoyl]amino}acetyl)amino]-3,3-dimethylbutanoyl}-10,10-dimethyl-N-{(1R,2S)-1-[(pyrrolidin-1-ylsulfonyl)carbamoyl]-2-vinylcyclopropyl}-7-azadispiro[3.0.4.1]decane-8-carboxamide]	70
C=C[C@@H]1C[C@]1(NC(=O)[C@@H]1C[C@@]2(CN1C(=O)[C@@H](NC(=O)[C@@H](NC(=O)c1cc(C)nn1C(C)(C)C)C1CCCCC1)C(C)(C)C)C(C)(C)C21CCC1)C(=O)NS(=O)(=O)N1CCCC1 [Compound 183, (5R,8S)-7-[(2S)-2-{[{[(1-tert-butyl-3-methyl-1H-pyrazol-5-yl)carbonyl]amino}(cyclohexyl)acetyl]amino}-3,3-dimethylbutanoyl]-10,10-dimethyl-N-{(1R,2S)-1-[(pyrrolidin-1-ylsulfonyl)carbamoyl]-2-vinylcyclopropyl}-7-azadispiro[3.0.4.1]decane-8-carboxamide]	95
C=C[C@@H]1C[C@]1(NC(=O)[C@@H]1C[C@@]2(CN1C(=O)[C@@H](NC(=O)[C@@H](NC(=O)c1cnn(-c3ccccc3)c1)C1CCCCC1)C(C)(C)C)C(C)(C)C21CCC1)C(=O)NS(=O)(=O)N1CCCC1 [Compound 184, (5R,8S)-7-{(2S)-2-[(cyclohexyl{[(1-phenyl-1H-pyrazol-4-yl)carbonyl]amino}acetyl)amino]-3,3-dimethylbutanoyl}-10,10-dimethyl-N-{(1R,2S)-1-[(pyrrolidin-1-ylsulfonyl)carbamoyl]-2-vinylcyclopropyl}-7-azadispiro[3.0.4.1]decane-8-carboxamide]	35
C=C[C@@H]1C[C@]1(NC(=O)[C@@H]1C[C@@]2(CN1C(=O)[C@@H](NC(=O)[C@@H](NC(=O)c1cc(CC)nn1C)C1CCCCC1)C(C)(C)C)C(C)(C)C21CCC1)C(=O)NS(=O)(=O)N1CCCC1 [Compound 185, (5R,8S)-7-{(2S)-2-[(cyclohexyl{[(3-ethyl-1-methyl-1H-pyrazol-5-yl)carbonyl]amino}acetyl)amino]-3,3-dimethylbutanoyl}-10,10-dimethyl-N-{(1R,2S)-1-[(pyrrolidin-1-ylsulfonyl)carbamoyl]-2-vinylcyclopropyl}-7-azadispiro[3.0.4.1]decane-8-carboxamide]	40
C=C[C@@H]1C[C@]1(NC(=O)[C@@H]1C[C@@]2(CN1C(=O)[C@@H](NC(=O)[C@@H](NC(=O)Cn1nc(C)cc1C)C1CCCCC1)C(C)(C)C)C(C)(C)C21CCC1)C(=O)NS(=O)(=O)N1CCCC1 [Compound 186, (5R,8S)-7-{(2S)-2-[(cyclohexyl{[(3,5-dimethyl-1H-pyrazol-1-yl)acetyl]amino}acetyl)amino]-3,3-dimethylbutanoyl}-10,10-dimethyl-N-{(1R,2S)-1-[(pyrrolidin-1-ylsulfonyl)carbamoyl]-2-vinylcyclopropyl}-7-azadispiro[3.0.4.1]decane-8-carboxamide]	65
C=C[C@@H]1C[C@]1(NC(=O)[C@@H]1C[C@@]2(CN1C(=O)[C@@H](NC(=O)[C@@H](NC(=O)[C@@H]1CCCN1C(C)=O)C1CCCCC1)C(C)(C)C)C(C)(C)C21CCC1)C(=O)NS(=O)(=O)N1CCCC1 [Compound 187, (5R,8S)-7-[(2S)-2-{[({[(2S)-1-acetylpyrrolidin-2-yl]carbonyl}amino)(cyclohexyl)acetyl]amino}-3,3-dimethylbutanoyl]-10,10-dimethyl-N-{(1R,2S)-1-[(pyrrolidin-1-ylsulfonyl)carbamoyl]-2-vinylcyclopropyl}-7-azadispiro[3.0.4.1]decane-8-carboxamide]	25
C=C[C@@H]1C[C@]1(NC(=O)[C@@H]1C[C@@]2(CN1C(=O)[C@@H](NC(=O)[C@@H](NC(=O)c1cc3ccccc3[nH]1)C1CCCCC1)C(C)(C)C)C(C)(C)C21CCC1)C(=O)NS(=O)(=O)N1CCCC1 [Compound 188, (5R,8S)-7-[(2S)-2-({cyclohexyl[(1H-indol-2-ylcarbonyl)amino]acetyl}amino)-3,3-dimethylbutanoyl]-10,10-dimethyl-N-{(1R,2S)-1-[(pyrrolidin-1-ylsulfonyl)carbamoyl]-2-vinylcyclopropyl}-7-azadispiro[3.0.4.1]decane-8-carboxamide]	20
C=C[C@@H]1C[C@]1(NC(=O)[C@@H]1C[C@@]2(CN1C(=O)[C@@H](NC(=O)[C@@H](NC(=O)c1c[nH]c3ccccc13)C1CCCCC1)C(C)(C)C)C(C)(C)C21CCC1)C(=O)NS(=O)(=O)N1CCCC1 [Compound 189, (5R,8S)-7-[(2S)-2-({cyclohexyl[(1H-indol-3-ylcarbonyl)amino]acetyl}amino)-3,3-dimethylbutanoyl]-10,10-dimethyl-N-{(1R,2S)-1-[(pyrrolidin-1-ylsulfonyl)carbamoyl]-2-vinylcyclopropyl}-7-azadispiro[3.0.4.1]decane-8-carboxamide]	25
C=C[C@@H]1C[C@]1(NC(=O)[C@@H]1C[C@@]2(CN1C(=O)[C@@H](NC(=O)[C@@H](NC(=O)c1ccc3[nH]ccc3c1)C1CCCCC1)C(C)(C)C)C(C)(C)C21CCC1)C(=O)NS(=O)(=O)N1CCCC1 [Compound 190, (5R,8S)-7-[(2S)-2-({cyclohexyl[(1H-indol-5-ylcarbonyl)amino]acetyl}amino)-3,3-dimethylbutanoyl]-10,10-dimethyl-N-{(1R,2S)-1-[(pyrrolidin-1-ylsulfonyl)carbamoyl]-2-vinylcyclopropyl}-7-azadispiro[3.0.4.1]decane-8-carboxamide]	20
C=C[C@@H]1C[C@]1(NC(=O)[C@@H]1C[C@@]2(CN1C(=O)[C@@H](NC(=O)[C@@H](NC(=O)c1cc3ccccc3o1)C1CCCCC1)C(C)(C)C)C(C)(C)C21CCC1)C(=O)NS(=O)(=O)N1CCCC1 [Compound 191, (5R,8S)-7-[(2S)-2-({[(1-benzofuran-2-ylcarbonyl)amino](cyclohexyl)acetyl}amino)-3,3-dimethylbutanoyl]-10,10-dimethyl-N-{(1R,2S)-1-[(pyrrolidin-1-ylsulfonyl)carbamoyl]-2-vinylcyclopropyl}-7-azadispiro[3.0.4.1]decane-8-carboxamide]	55
